According to US12427183B2, “Methods of treating cancer, infectious disease, and autoimmune disease using chemokines” (New York Society for the Relief of the Ruptured and …, priority 2016, dated 2025):

Legend:
[1] = system: purified pDCs from HDs or SSc patients; experiment: IFN production by purified pDCs cultured with chemokine alone; format: cell-based, human; details: chemokine 10 μg/ml without CpG, results not shown
Procedure: (§1) PBMCs were prepared using Ficoll-Paque density gradient from fresh blood under internal Institutional Review Board-approved protocols. pDCs were isolated as previously described (Guiducci et al. 2008) using either using negative depletion (Miltenyi Biotech) or following cell sorting using a BD IFNLUX cell sorter. As part of the gating strategy, neutrophils were excluded by FSC/SSC and cells positive for CD14 (CD3 and CD19 as well) were first excluded in order to prevent the contamination by TLR8 positive cells and then positively gated on HLA-DR, CD123 and BDCA4 to purify the pDCs. All BDCA4+ cells also express BDCA2 (results not shown). As a result, pure pDCs were obtained and no markers for neutrophils (CD66) or myeloid cells were found by PCR. B cells were FACS sorted as CD19+ and monocytes as CD14+ cells. PBMCs were depleted of pDCs using BDCA4 beads from Miltenyi. pDCs were cultured at 10,000-30,000 cells per well in a 96-round bottom plate and incubated at 37° C., 5% CO2 and 95% humidity. After 24 hours of culture, the supernatant was collected for ELISA or Mutiplex cytokine assays. In some culture conditions, cells were cultured with the PI3Kδ inhibitor, CAL-101 (Selleck chemicals) for 24 hours. The RNA-based TLR8 agonist, ORN8-L previously described (Guidacci et al. 2013) was synthetized by Chemgenes Corporation. For the TLR8 activation assay, pDCs were incubated in complete media alone, 200 μg/ml ORN8-L in complete media or 200 μg/ml ORN8-L+ 10 μg/ml CXCL4 (R&D systems).
Supernatant from pDCs 24 hour culture was used for quantification of secreted chemokines and cytokines and measured with the use of an enzyme-linked immunosorbent assay (ELISA) or Luminex multiplex-beads immunoassay. CXCL4 ELISA (Ray Biotech) and IFNα, IP-10, IL-6, TNF Luminex assay (Millipore) was performed according to the manufacturer's protocol. Due to the variability in the number of cells obtained from the different patients and so we could compare the values across donors, all results were normalized to 10,000 cells. Of note, for all donors, pDCs were plated between 10,000-30,000 cells.
When purified pDCs from HDs or SSc patients were cultured with CXCL4 alone ([…]), there was no effect on IFN production.
(§2) 5×10^5 PBMCs or pDC-depleted PBMCs were cultured in 96 wells plate and stimulated with 0.25 μM CpG DNA with or without 10 μg/ml CXCL4, CXCL10, CXCL12 or CCL5. Freshly isolated pDCs were resuspended at 5×10^4 cells/100 μl RPMI 1640 medium (Gibco) and stimulated with the 0.25 μM CpG with/without 10 μg/ml indicated chemokines. The supernatant was harvested after 18 h and IFN-α was measured by ELISA.

[2] = system: TLR9-mediated activation of pDCs; experiment: TLR9-mediated activation of purified pDCs (CpG with or without chemokines), IFN-α ELISA; format: cell-based, human; details: for TLR9-induced response (IFN-α secretion) by pDCs / IFNα production from TLR9 in pDCs from HDs: CpG 0.25 μM; for TLR9-induced response (IFN-α secretion) by pDCs: chemokine 10 μg/ml (Example 17); for dependence of IFN-α superinduction on chemokine receptors: with AMG487 100 nM, AMD3100 10 μg/ml, anti-CXCR7 11G8 10 μg/ml, J113863 1.5 μM or Vicriviroc 0.1 μM; for IFNα production from TLR9 in pDCs from HDs: chemokine 10 μg/ml (Example 9)
[3] = system: PBMCs and pDC-depleted PBMCs; experiment: IFN-α production in PBMCs and pDC-depleted PBMCs cultured with CpG and chemokines (ELISA); format: cell-based, human; details: CpG 0.25 μM + chemokine 10 μg/ml
Procedure: PBMCs were prepared using Ficoll-Paque density gradient (GE Healthcare) as previously described (Guiducci et al., 2008).
pDCs were isolated from PBMCs by positive selection using BDCA4-MicroBead Kit as previously described (Guiducci et al., 2008). pDC-depleted PBMC were prepared by removing BDCA4-positive cells from PBMC using microbeads.
as §2
As shown above, CXCL4 can increase IFN-α production by TLR9-activated pDCs. Thus it was tested whether other chemokines may impact TLR9 signaling in pDCs. Purified pDCs were left unstimulated (Unstim.) or cultured with CpG (0.25 μM) alone or with the indicated chemokines at 10 μg/ml. IFN-α secretion was quantified by ELISA. Strikingly, it was observed that a set of chemokines, including CXCL4, CXL10, CXCL12 and CCL5, were able to superinduce TLR9-induced response by pDCs (FIG. 18A), while they had no effect when used alone (results not shown). […] This also raised questions as to the specificity and mechanism for this effect. First, as other DNA sensors have been described to induce IFN-α in immune cells (Barrat et al., 2016), it was tested to see if these chemokines altered the specificity of the CpGs for TLR9 and if the IFN-α response was restricted to pDCs. Total PBMCs or PBMCs where pDCs were depleted (PBMC-ΔpDCs) were incubated with CpGs and either CXCL4, CXCL10, CXCL12 or CCL5 and IFN-α production was quantified by ELISA.

pDCs of HDs = experiment: TLR gene expression in purified pDCs from HDs cultured with cytokines or chemokines (qPCR); format: cell-based, human; details: 24 hours; for induction of TLR8 expression on pDCs of HDs: purified pDCs from HDs, IFN-α and IFN-γ 10 ng/ml, IL-12 100 ng/ml, IL-6 5 ng/ml, IL-10 10 ng/ml, TNF 1 ng/ml, TGF-β 10 ng/ml
Procedure: as §1
PCR reactions were performed as described previously with 10 ng of cDNA (Barrat et al. 2005). In brief, RNA was extracted from cells using the Qiagen RNeasy Mini Kit. Quantity of RNA was measured by Nanodrop and high-capacity cDNA Reverse Transcription kit was used to generate 20-50 ng cDNA. Gene expression levels were calculated based on relative threshold cycle (Ct) values. This was done using the formula Relative Ct=100×1.8 (HSK-GENE), where HSK is the mean CT of duplicate housekeeping gene runs (we used Ubiquitin), GENE is the mean CT of duplicate runs of the gene of interest, and 100 is arbitrarily chosen as a factor to bring all values above 0.
In particular, CXCL4 or IP-10 (two CXCR3B agonists) (10 μg/ml each) had no impact on TLR8 nor TLR7 and TLR9 expression levels in pDCs (FIG. 2C).

[4] = system: TLR9-mediated activation of human B cells; experiment: TLR9-mediated activation of human B cells (CpG with or without chemokines); format: cell-based; details: chemokine 10 μg/ml; for activation of B cells via TLR9 as shown by the production of IL-6: CpG 0.15 μM, ELISA
Procedure: as §1
IL-6, TNF, and IL-10 gene levels were measured at 6 hours post culture using PCR. The secretion of cytokines/chemokines in the supernatants was quantified using Luminex. CD83, CD80, CD86 and CD69 expression was measured by flow cytometry at 24 hour post culture.
Human B cells were purified and cultured for 6 hours or 24 hours either with medium only, with CpG-C (at 0.15 μM) alone or with a combination of CpG-C and CXCL4 (at 10 μg/ml). IL-6 gene levels was measured at 6 hour post culture by PCR and CD83, CD80, CD86 and CD69 expression was measured by flow cytometry at 24 hour post culture.
Purified B cells from HDs were cultured in media alone (control), with either a CpG TLR9 agonist (0.15 μM) or with CpG and either CXCL4, CXCL10, CXCL9, CXCL4, CXCL7 or CXCL12 (all at 10 μg/ml). IL-6 was quantified in the supernatants by ELISA.
Purified B cells from HDs were cultured in media alone (control), with either a CpG TLR9 agonist (0.25 μM) or with CpG and CXCL4 or CXCL10 (10 μg/ml) alone or in the presence of the CXCR3 inhibitor AMG487 at 0, 0.1, 1 or 10 μM for 6 hours or 24 hours. IL-6 was quantified by ELISA at 24 hours and IL-6 and TNF gene expression levels were quantified by q-PCR at 6 hours and CD83, CD80, CD86 and CD69 expression was measured by flow cytometry at 24 hours post culture.

CCL5: small chemokine belonging to the CC chemokine family
IFN-α secretion by pDCs, chemokine used alone [1]: no effect
TLR9-induced response (IFN-α secretion) by pDCs [2]: superinduce
dependence of IFN-α superinduction on chemokine receptors [2]: independent of their chemokine receptors
IFN-α production in absence of the pDCs (PBMC-ΔpDCs versus total PBMCs) [3]: dramatic decrease

CXCL10: small chemokine belonging to the CXC chemokine family and a ligand for the receptor CXCR3
TLR8, TLR7 and TLR9 expression levels in pDCs (pDCs of HDs; 10 μg/ml each, pDCs from HDs): no impact
IFN-α secretion by pDCs, chemokine used alone [1]: no effect
IFNα production from TLR9 in pDCs from HDs [2]: potentiated
TLR9-induced response (IFN-α secretion) by pDCs [2]: superinduce
dependence of IFN-α superinduction on chemokine receptors [2]: independent of their chemokine receptors
effect of inhibition of CXCR3 on the chemokine's inhibition of TLR9 in B cells ([4]; CXCR3 inhibitor AMG487 0.1, 1 or 10 μM, CpG 0.25 μM, 6 or 24 hours): no effect
activation of B cells via TLR9 as shown by the production of IL-6 [4]: inhibited
IFN-α production in absence of the pDCs (PBMC-ΔpDCs versus total PBMCs) [3]: dramatic decrease

CXCL12: stromal cell-derived factor-1, small chemokine belonging to the CXC chemokine family
IFN-α secretion by pDCs, chemokine used alone [1]: no effect
IFNα production from TLR9 in pDCs from HDs [2]: potentiated
TLR9-induced response (IFN-α secretion) by pDCs [2]: superinduce
dependence of IFN-α superinduction on chemokine receptors [2]: independent of their chemokine receptors
activation of B cells via TLR9 as shown by the production of IL-6 [4]: inhibited
IFN-α production in absence of the pDCs (PBMC-ΔpDCs versus total PBMCs) [3]: dramatic decrease

IFN-α
induction of TLR8 expression on pDCs of HDs (pDCs of HDs): none of these molecules could induce TLR8

IL-6: cytokine added to pDC culture at 5 ng/ml
induction of TLR8 expression on pDCs of HDs (pDCs of HDs): none of these molecules could induce TLR8

TGF-β
induction of TLR8 expression on pDCs of HDs (pDCs of HDs): none of these molecules could induce TLR8

heparin [reference compound]
superinduction of IFN-α by all four chemokines (CXCL4, CXCL10, CXCL12, CCL5) ([2]; heparin 1 U/ml, CpG-activated pDCs): reduced

B1: IL-12: cytokine added to pDC culture at 100 ng/ml (protein, UniProt P29459 23-219; P29460 23-328, looked up)
Interleukin-12 subunit alpha: RNLPVATPDPGMFPCLHHSQNLLRAVSNMLQKARQTLEFYPCTSEEIDHEDITKDKTSTVEACLPLELTKNESCLNSRETSFITNGSCLASRKTSFMMALCLSSIYEDLKMYQVEFKTMNAKLLMDPKRQIFLDQNMLAVIDELMQALNFNSETVPQKSSLEEPDFYKTKIKLCILLHAFRIRAVTIDRVMSYLNAS
Interleukin-12 subunit beta: IWELKKDVYVVELDWYPDAPGEMVVLTCDTPEEDGITWTLDQSSEVLGSGKTLTIQVKEFGDAGQYTCHKGGEVLSHSLLLLHKKEDGIWSTDILKDQKEPKNKTFLRCEAKNYSGRFTCWWLTTISTDLTFSVKSSRGSSDPQGVTCGAATLSAERVRGDNKEYEYSVECQEDSACPAAEESLPIEVMVDAVHKLKYENYTSSFFIRDIIKPDPPKNLQLKPLKNSRQVEVSWEYPDTWSTPHSYFSLTFCVQVQGKSKREKKDRVFTDKTSATVICRKNASISVRAQDRYYSSSWSEWASVPCS
induction of TLR8 expression on pDCs of HDs (pDCs of HDs): none of these molecules could induce TLR8

B2: IFN-γ: cytokine added to pDC culture at 10 ng/ml (protein, UniProt P01579 24-161, looked up)
Interferon gamma: QDPYVKEAENLKKYFNAGHSDVADNGTLFLGILKNWKEESDRKIMQSQIVSFYFKLFKNFKDDQSIQKSVETIKEDMNVKFFNSNKKKRDDFEKLTNYSVTDLNVQRKAIHELIQVMAELSPAAKTGKRKRSQMLFRG
induction of TLR8 expression on pDCs of HDs (pDCs of HDs): none of these molecules could induce TLR8

B3: CXCL9: belongs to the CXC chemokine family, also known as MIG (protein, UniProt Q07325 23-125, looked up)
C-X-C motif chemokine 9: TPVVRKGRCSCISTNQGTIHLQSLKDLKQFAPSPSCEKIEIIATLKNGVQTCLNPDSADVKELIKKWEKQVSQKKKQKNGKKHQKKKVLKVRKSQRSRQKKTT
activation of B cells via TLR9 as shown by the production of IL-6 [4]: inhibited

B4: IL-10: cytokine added to pDC culture at 10 ng/ml (protein, UniProt P22301 19-178, looked up)
Interleukin-10: SPGQGTQSENSCTHFPGNLPNMLRDLRDAFSRVKTFFQMKDQLDNLLLKESLLEDFKGYLGCQALSEMIQFYLEEVMPQAENQDPDIKAHVNSLGENLKTLRLRLRRCHRFLPCENKSKAVEQVKNAFNKLQEKGIYKAMSEFDIFINYIEAYMTMKIRN
induction of TLR8 expression on pDCs of HDs (pDCs of HDs): none of these molecules could induce TLR8
